Read-outs that look alike come from different tables or passages of the source.
Legend:
[1] = target: CYP 3A4 enzyme in human liver microsomes (Homo sapiens, UniProt P08684); assay: CYP3A4 inhibition experiment in human liver microsomes
Protocol: The inhibitory effects of the test compounds on CYP 3A4T (with testosterone as substrate) and 3A4M (with midazolam as substrate) in human liver microsomes were evaluated in vitro to assess the medication safety of the compounds.
This study used the human liver microsome system and the cytochrome P450 enzyme probe substrate recommended by FDA guidelines for in vitro drug interaction studies to investigate the inhibition of the CYP 3A4 enzyme in human liver microsomes by the test compounds.
Test group (TG): Human liver microsomes were incubated with different concentrations of test compounds, NADPH (final concentration 2.00 mM) and probe substrates of different sub-enzymes (Table 4) for 5 min.
Positive control group (PC): Human liver microsomes were incubated with inhibitors (Table 4), NADPH (final concentration 2.00 mM) and probe substrates of different sub-enzymes (Table 4) for 5 min. Table 4 Probe substrates of sub-enzymes, inhibitors and incubation systems
The system was pre-incubated at 37°C for 5 min, and then 15 µL of 8 mM NADPH solution preheated at 37°C for 5-10 min to start the reaction. After incubation of the 96-well plate at 37°C for 5 min, 180 µL of acetonitrile:methanol (ACN:MeOH=1:1) solution containing internal standard (IS) was added to terminate the reaction. […] 80 µL of the supernatant was taken, added to 120 µL of ultrapure water, shaken evenly, and then detected by LC-MS/MS.
199 µL of 0.2 mg/mL HLM and 1 µL of 1 mM positive control inhibitor (ketoconazole) working solutions were taken and mixed evenly. 30 µL of the drug-containing liver microsome solution was taken and added to a 96-well plate, then 10 µL of substrate working solution (20 µM midazolam) was added, in duplicate. The system was pre-incubated at 37°C for 5 min, and then 15 µL of 8 mM NADPH solution preheated at 37°C for 5-10 min to start the reaction. After incubation of the 96-well plate at 37°C for 5 min, 180 µL of ACN:MeOH(1:1) solution containing IS was added to terminate the reaction. […] 80 µL of the supernatant was taken, added to 120 µL of ultrapure water, shaken evenly, and then detected by LC-MS/MS.
4.2.5.1 The relative activity of CYP450 sub-enzymes at different concentrations was calculated by dividing the peak area ratio (analyte peak area/internal standard peak area) of metabolites in the presence of the test sample or positive control by the peak area ratio of metabolites in the solvent control sample in the absence of the test article or positive control, according to the following formula: [formula] [formula]
4.2.5.2 Half maximal inhibitory concentration (IC50) was obtained by fitting according to the following model formula using Prism software: Y = Bottom + (Top−Bottom)/(1+10^(∧)((LogIC50−X)×HillSlope)) [formula]
X is the test sample concentration converted to logarithm (Log µM), Y is the relative activity (% of NC), Bottom and Top represent the percentage of enzyme activity at the bottom platform and top platform of the curve, respectively, and HillSlope represents the slope; to optimize the fitting effect, the use of other (nonlinear) dose-response models for fitting is not considered as a deviation from the protocol.

[2] = target: T1, p53-Y220C mutant protein (Homo sapiens, UniProt P04637, Y220C); assay: In vitro DNA binding activity assay (TR-FRET); type: biochemical; details: concentration required to increase the binding activity of protein to DNA by 50%
T1 construct: The recombinant Y220C p53 DBD protein with his-tag
Outline: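 SC150, the compound concentration increasing p53-Y220C DNA binding by 50% relative to vehicle, came from background-corrected 665/615 nm TR-FRET ratios. His-tagged DBD and compound were preincubated 60 min at RT before biotin-DNA plus Eu-anti-His/streptavidin-d2 detection overnight in the dark.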

[3] = test system: NUGC-3 cells; assay: NUGC-3 cell proliferation assay (CTG, 7 days); type: cell-based, human; details: Homo sapiens, NUGC-3, 168 h
Outline: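 Cells (200/well) in 1640 medium with 10% serum exposed to 10-point, 3-fold DMSO dilutions (duplicates) for 7 days at 37°C. Viability read by CellTiter-Glo luminescence; % inhibition normalized to DMSO and blank, IC50 from variable-slope nonlinear fit.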

[4] = CYP 3A4M IC50, human liver microsomes, midazolam as substrate
[5] = CYP 3A4T IC50, human liver microsomes, testosterone as substrate
[6] = NUGC-3 cell proliferation, 7 days, CTG, read-out: IC50

Chain of CYP 3A4 enzyme in human liver microsomes (P08684 whole entry): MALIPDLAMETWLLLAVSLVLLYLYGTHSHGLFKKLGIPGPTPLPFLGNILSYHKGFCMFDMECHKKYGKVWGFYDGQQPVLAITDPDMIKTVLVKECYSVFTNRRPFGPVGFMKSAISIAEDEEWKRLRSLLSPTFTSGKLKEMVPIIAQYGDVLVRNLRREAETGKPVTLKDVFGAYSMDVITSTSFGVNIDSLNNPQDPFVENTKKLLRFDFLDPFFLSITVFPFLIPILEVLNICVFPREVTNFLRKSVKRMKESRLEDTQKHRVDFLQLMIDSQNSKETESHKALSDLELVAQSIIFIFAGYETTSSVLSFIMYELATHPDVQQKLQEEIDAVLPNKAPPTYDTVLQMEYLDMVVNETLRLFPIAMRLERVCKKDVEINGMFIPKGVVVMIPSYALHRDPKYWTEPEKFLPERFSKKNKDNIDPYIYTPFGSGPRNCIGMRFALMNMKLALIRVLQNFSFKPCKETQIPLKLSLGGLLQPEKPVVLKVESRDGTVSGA

Row | Structure (SMILES) | IC50 [1, 4] | IC50 [1, 5] | SC150 [2] | IC50 [3, 6] | IC50 [3]
1 | CN1CC[C@@H](Nc2cccc3c(CC(F)(F)F)c(C#CCNC(=O)c4ccc(N5CCOCC5)nc4)nn23)[C@@H](F)C1 [Compound 275, N-[3-(7-{[(3S,4R)-3-fluoro-1-methylpiperidin-4-yl]amino}-3-(2,2,2-trifluoroethyl)pyrazolo[1,5-a]pyridin-2-yl)prop-2-yn-1-yl]-(6-morpholin-4-yl)pyridine-3-carboxamide] | > 30 µM | > 30 µM | 27 nM | 0.901 µM | 
2 | CN1CC[C@@H](Nc2cccc3c(CC(F)(F)F)c(C#CCNC(=O)c4cnn5c4CCCC5)nn23)[C@@H](F)C1 [Compound 276, N-[3-(7-{[(3S,4R)-3-fluoro-1-methylpiperidin-4-yl]amino}-3-(2,2,2-trifluoroethyl)pyrazolo[1,5-a]pyridin-2-yl)prop-2-yn-1-yl]-4,5,6,7-tetrahydropyrazolo[1,5-a]pyridine-3-carboxamide] | 17.4 µM | > 30 µM | 18 nM | 0.856 µM | 
3 | CCn1ccc(C(=O)NCC#Cc2nn3c(N[C@@H]4CCN(C)C[C@@H]4F)cccc3c2CC(F)(F)F)c1 [Compound 277, 1-ethyl-N-[3-(7-{[(3S,4R)-3-fluoro-1-methylpiperidin-4-yl]amino}-3-(2,2,2-trifluoroethyl)pyrazolo[1,5-a]pyridin-2-yl)prop-2-yn-1-yl]-1H-pyrrole-3-carboxylic acid amide] | 12.4 µM | 15.8 µM | 14 nM |  | 0.726 µM
4 | Cc1cc(C(=O)NCC#Cc2nn3c(N[C@@H]4CCN(C)C[C@@H]4F)cccc3c2CC(F)(F)F)co1 [Compound 278, N-[3-(7-{[(3S,4R)-3-fluoro-1-methylpiperidin-4-yl]amino}-3-(2,2,2-trifluoroethyl)pyrazolo[1,5-a]pyridin-2-yl)prop-2-yn-1-yl]-5-methylfuran-3-carboxamide] | 14.7 µM | 13 µM | 24 nM | 1.12 µM | 
5 | COCCn1ccc(C(=O)NCC#Cc2nn3c(N[C@@H]4CCN(C)C[C@@H]4F)cccc3c2CC(F)(F)F)c1 [Compound 279, N-[3-(7-{[(3S,4R)-3-fluoro-1-methylpiperidin-4-yl]amino}-3-(2,2,2-trifluoroethyl)pyrazolo[1,5-a]pyridin-2-yl)prop-2-yn-1-yl]-1-(methoxyethyl)-1H-pyrrole-3-carboxamide] | 18 µM | 24.3 µM | 9 nM | 0.672 µM | 
6 | CN1CC[C@@H](Nc2cccc3c(CC(F)(F)F)c(C#CCNC(=O)c4cc5n(c4)CCOC5)nn23)[C@@H](F)C1 [Compound 281, N-[3-(7-{[(3S,4R)-3-fluoro-1-methylpiperidin-4-yl]amino}-3-(2,2,2-trifluoroethyl)pyrazolo[1,5-a]pyridin-2-yl)prop-2-yn-1-yl]-3,4-dihydro-1H-pyrrolo[2,1-c][1,4]oxazine-7-carboxamide] | > 30 µM | > 30 µM | 13 nM | 0.413 µM | 
7 | CN1CC[C@@H](Nc2cccc3c(CC(F)(F)F)c(C#CCNC(=O)c4ncn(C(C)(C)C)c4N)nn23)[C@@H](F)C1 [Compound 283, 5-amino-1-tert-butyl-N [3-(7-{[(3S,4R)-3-fluoro-1-methylpiperidin-4-yl]amino}-3-(2,2,2-trifluoroethyl)pyrazolo[1,5-a]pyridin-2-yl)prop-2-yn-1-yl]-1H-pyrazole-4-carboxamide] | > 30 µM | 18.1 µM | 19 nM |  | 1.64 µM
8 | CN1CC[C@@H](Nc2cccc3c(CC(F)(F)F)c(C#CCNC(=O)c4cnn(C56CC(C5)C6)c4N)nn23)[C@@H](F)C1 [Compound 289, 5-amino-1-(dicyclo[1.1.1]pent-1-yl)-N-[3-(7-{[(3S,4R)-3-fluoro-1-methylpiperidin-4-yl]amino}-3-(2,2,2-trifluoroethyl)pyrazolo[1,5-a]pyridin-2-yl)prop-2-yn-1-yl]-1H-pyrazole-4-carboxamide] | 12.9 µM | 13.2 µM | 5 nM |  | 0.182 µM
9 | CCN1CC[C@@H](Nc2cccc3c(CC(F)(F)F)c(C#CCNC(=O)c4cnn(C(C)(C)C)c4N)nn23)[C@@H](F)C1 [Compound 353, 5-amino-1-tert-butyl-N-[3-(7-{[(3S,4R)-1-ethyl-3-fluoropiperidin-4-yl]amino}-3-(2,2,2-trifluoroethyl)pyrazolo[1,5-a]pyridin-2-yl)prop-2-yn-1-yl]-1H-pyrazole-4-carboxamide] | 22.3 µM | 26.5 µM | 4 nM | 0.152 µM | 
10 | CC(C)N1CC[C@@H](Nc2cccc3c(CC(F)(F)F)c(C#CCNC(=O)c4cnn(C(C)(C)C)c4N)nn23)[C@@H](F)C1 [Compound 354] | 15.6 µM | 18.5 µM | 3 nM |  | 0.177 µM
